Measured values: US20170166979A1, “PERSONALIZED TREATMENT OF CANCER USING FGFR INHIBITORS” (priority 2014, published 2017)
Entries after “also recorded” stand apart in the source; their conditions may differ.

Legend:
NIH3T3-FGFR1β-MYC cells = assay: Xenograft mouse model, tumor volume; format: in vivo, nude mice; conditions: 15 mg/kg, q.d., tumors coexpressing FGFR1 and MYC; P<0.001
Experimental: (§1) FIG. 4. Nude mice, engrafted with retrovirally transduced NIH3T3 cells, received BGJ398 (15 mg/kg, q.d., lower curve) or 5% glucose (upper curve), respectively, upon formation of palpable tumors. Volumes of tumors formed by NIH3T3-FGFR1f3 cells (top) and NIH3T3-FGFR1β-MYC cells (bottom) were assessed every second day and compared by the t test. Error bars display SD of three independent experiments.
(§2) All animal procedures were approved by the local animal protection committee and the local authorities. Transduced NIH3T3 and tumor cells were resuspended in RPMI or DMEM medium and injected (5×10^6 cells per tumor) subcutaneously into the flanks of 8- to 15-week-old male nude mice [Rj:NMRI-nu (nu/nu), Janvier Europe] under 2.5% isoflurane anesthesia.
(§3) To assess the effect of FGFR1 inhibitors in vivo, NVP-BGJ 398 (Novartis) was dissolved in a vehicle solution (33% PEG300, 5% glucose) for xenograft application. Tumor size was monitored every second day by measurement of perpendicular diameters by an external caliper and calculated by use of the modified ellipsoid formula [V=½ (Length×Width 2)]. Oral therapy was started when tumors reached a volume of 100 mm 3. Mice received daily either
(§4) BGJ398 (15 mg/kg) or vehicle solution. After 14 (NIH3T3 FGFR1(3 +MYC), 16 (NIH3T3 EML4-ALK, KRAS G12V), or 25 (NIH3T3 e.V., FGFR1α/β) days of therapy, respectively, mice were sacrificed by intraperitoneal injection of ketamine/xylazine (300/60 mg/kg).

[1] = system: NIH3T3 cells expressing either of the mesenchymal FGFR1 splice variants; assay: Xenograft mouse model, tumor volume; format: in vivo, nude mice; conditions: 15 mg/kg, q.d.
Experimental: as §1, §2, §3, §4

[2] = system: stage IV squamous cell lung cancer with FGFR1 amplification and MYC score of 3; assay: Patient treated with BGJ398 in first-in-humans trial (CT, RECIST 1.1); format: in vivo, human; conditions: 100 mg
Excerpt: FIG. 11. […] The sample was scored (degrees 0-3) by FGFR1 dual-color FISH (top, normalized copy-number ratio) as well as MYC IHC (bottom, nuclear staining intensity).
FIG. 13. Fused scans of positron emission tomography (PET) and computer tomography (CT) before (top left, baseline) and after the beginning of BGJ389 therapy (top right, 4 weeks). […] Target lesions for evaluation of tumor response are highlighted by red arrows. IHC, immunohistochemistry.
We identified a person with a 70-packper-year smoking history. […] The patient agreed to treatment with BGJ398, a highly specific FGFR1 inhibitor, which was being evaluated in a first-in-humans trial at our center. After cardiac assessment and baseline thoracic computed tomography (CT), treatment with 100 mg BGJ398 was started.

[3] = system: FGFR-dependent cell lines; assay: Mitochondrial apoptosis mediators upon FGFR inhibition; format: cell-based; conditions: 1 μmol/L, after 72 hours
[4] = system: resistant group (A427, H520, H1703, HCC15, H358, HCC95, H187, SW1271, H526, and DMS153 cells); assay: FGFR dependency of cancer cell lines (cellular ATP content after 96 hours); format: cell-based
Experimental: (§5) FIG. 7. Protein expression of MYC was silenced by stable lentiviral transduction of FGFR dependent H1581 cells as well as HCC15, H2882, and HCC95 controls. Knockdown efficiency was validated by immunoblotting for H1581, H2882, and HCC15 cells (top). FGFR dependency was determined by measuring cellular ATP content after 96 hours (bottom).
(§6) FIG. 9. Segregation of FGFR1 amplification with RNA expression levels of MYC Cancer cell lines were divided into an FGFR-dependent (H1581, DMS114, and HCC1599) GI 50<500 nmol/L, PD173074) versus resistant group (A427, H520, H1703, HCC15, H358, HCC95, H187, SW1271, H526, and DMS153 cells). Expression levels were compared by the Student t test. wt, wild-type.

[5] = system: FGFR-dependent cancer cell lines (H1581, DMS114, and HCC1599); assay: as above; format: cell-based; conditions: FGFR-dependent group: H1581, DMS114, HCC1599
Experimental: as §5, §6

[6] = system: FGFR-dependent H1581 cells; assay: Induction of apoptosis (Annexin-V/PI, flow cytometry); format: cell-based; conditions: 1 μmol/L, 72-hour
Excerpt: (§7) FIG. 3. Induction of apoptosis (Annexin-V/PI, flow cytometry) in NIH3T3 cells, (co-) transduced with FGFR1β+/−MYC, by 72-hour FGFR inhibition (PD173074, 1 μmol/L). FGFR-dependent H1581 cells (PD173074, 1 μmol/L) as well as ALK-dependent NIH3T3-EML4-ALK
cells (TAE684, 1 μmol/L) were used as positive controls. Resistant HCC15 and NIH3T3-e.V. cells served as negative controls. *, Significant induction of apoptosis.

[7] = system: FGFR-dependent cell lines H1581 and DMS114; assay: Immunoblotting of MYC and cyclin D1 expression upon FGFR inhibition; format: cell-based; conditions: 1 μmol/L, within 24 hours
Experimental: (§8) FIG. 6. FGFR1-amplified H1581, DMS114, and HCC95 cells as well as HCC15 (NRAS mut) controls were treated with PD173074 (1 μmol/L, 24 hours). Expression levels of MYC, cyclin D1, and actin as well as ERK phosphorylation were monitored by immunoblotting. Con.: positive control NIH3T3-FGFR1β cells.

[8] = system: FGFR1-amplified HCC95 and H520 cells and NRAS-mutant HCC15 cells; assay: as above; format: cell-based; conditions: 1 μmol/L, 24 hours
Experimental: as §8

[9] = system: FGFR1-MYC cotransduced NIH3T3 cells; assay: Induction of apoptosis (Annexin-V/PI, flow cytometry); format: cell-based; conditions: 1 μmol/L, 72-hour FGFR inhibition
Excerpt: as §7
(§9) cells (TAE684, 1 μmol/L) were used as positive controls.

[10] = system: NIH3T3 cells expressing FGFR1 alone; assay: as above; format: cell-based; conditions: 1 μmol/L, 72-hour FGFR inhibition
Excerpt: as §7, §9

Structure (SMILES)	Tumor regression (NIH3T3-FGFR1β-MYC cells)	Tumor growth ([1]; oral, nude mice)	Tumor shrinkage ([1]; tumors expressing FGFR1 alone)	Duration of therapy until progressive disease (kidney, RECIST1.1) [2]	Symptoms [2]	Response according to RECIST 1.1 criteria ([2]; CT scans after 4 and 8 weeks)	Tumor response on CT ([2]; CT scans after 4 and 8 weeks)	Cytochrome C release [3]	Loss of the mitochondrial membrane potential [3]	FGFR dependency group [4]	GI50 [5]	Induction of apoptosis [6]	Levels of MYC [7]	Levels of cyclin D1 [7]	Expression levels (MYC, cyclin D1) [8]	Induction of apoptosis [9]	Induction of apoptosis [10]
CCN1CCN(c2ccc(Nc3cc(N(C)C(=O)Nc4c(Cl)c(OC)cc(OC)c4Cl)ncn3)cc2)CC1 [BGJ398]	led to regressions	repressed tumor growth	did not induce tumor shrinkage	10 months	improvement of symptoms	partial response (PR)	tumor regression; also recorded: regression without cavitation of the tumor	–	–	–	–	–	–	–	–	–	–
CCN(CC)CCCCNc1ncc2cc(-c3cc(OC)cc(OC)c3)c(NC(=O)NC(C)(C)C)nc2n1 [PD173074]	–	–	–	–	–	–	–	occurred robustly	occurred robustly	resistant	< 500 nM	induced apoptosis	decreased	decreased	remained relatively stable	induced apoptosis	but not in cells expressing FGFR1 alone
